Source: patent publication US8956999B2, “Herbicides” (Syngenta Limited, priority 2007, dated 2015)

How the values were obtained:
Assay type in all cases: in vivo
Avena fatua (AVEFA) [1] = test: Example B pre-emergence herbicidal test, glasshouse; settings: 312 h, rate 250 g/ha, evaluated after 13 days, 100=total damage to plant, 0=no damage to plant
Description: (§1) Seeds of a variety of test species were sown in standard soil in pots. After cultivation for one day (pre-emergence) or after 8 days cultivation (post-emergence) under controlled conditions in a glasshouse (at 24/16° C., day/night; 14 hours light; 65% humidity), the plants were sprayed with an aqueous spray solution derived from the formulation of the technical active ingredient in acetone/water (50:50) solution containing 0.5% Tween 20 (polyoxyethelyene sorbitan monolaurate, CAS RN 9005-64-5). The test plants were then grown in a glasshouse under controlled conditions in a glasshouse (at 24/16° C., day/night; 14 hours light; 65% humidity) and watered twice daily. After 13 days for pre and post-emergence, the test was evaluated (100=total damage to plant; 0=no damage to plant). Test Plants: Alopecurus myosuroides (ALOMY), Avena fatua (AVEFA), Setaria faberi (SETFA), Echinochloa crus-galli (ECHCG), Solanum nigrum (SOLNI) and Amaranthus retoflexus (AMARE)

Setaria faberi (SETFA) [2] = test: as above; settings: Setaria faberi, 312 h, rate 250 g/ha, evaluated after 13 days, 100=total damage to plant, 0=no damage to plant, read-out: Pre-Emergence Activity SEFTA
Description: as §1

[3] = tested on: Alopecurus myosuroides (ALOMY); test: as above; settings: 312 h, rate 250 g/ha, evaluated after 13 days, 100=total damage to plant, 0=no damage to plant
Description: as §1

[4] = tested on: Amaranthus retoflexus (AMARE); test: as above; settings: Amaranthus retroflexus, 312 h, rate 250 g/ha, evaluated after 13 days, 100=total damage to plant, 0=no damage to plant
Description: as §1

[5] = tested on: Echinochloa crus-galli (ECHCG); test: as above; settings: Echinochloa crus-galli, 312 h, rate 250 g/ha, evaluated after 13 days, 100=total damage to plant, 0=no damage to plant, read-out: Pre-Emergence Activity ECHGG
Description: as §1

Avena fatua (AVEFA) [6] = test: Example B post-emergence herbicidal test, glasshouse; settings: 312 h, rate 250 g/ha, evaluated after 13 days, read-out: Post-Emergence Activity AVEFA (100=total damage to plant; 0=no damage to plant)
Description: as §1

Setaria faberi (SETFA) [7] = test: as above; settings: 312 h, rate 250 g/ha, evaluated after 13 days, read-out: Post-Emergence Activity SEFTA (100=total damage to plant; 0=no damage to plant)
Description: as §1

[8] = tested on: Alopecurus myosuroides (ALOMY); test: as above; settings: 312 h, rate 250 g/ha, evaluated after 13 days, read-out: Post-Emergence Activity ALOMY (100=total damage to plant; 0=no damage to plant)
Description: as §1

[9] = tested on: Amaranthus retoflexus (AMARE); test: as above; settings: Amaranthus retroflexus, 312 h, rate 250 g/ha, evaluated after 13 days, read-out: Post-Emergence Activity AMARE (100=total damage to plant; 0=no damage to plant)
Description: as §1

[10] = tested on: Echinochloa crus-galli (ECHCG); test: as above; settings: 312 h, rate 250 g/ha, evaluated after 13 days, read-out: Post-Emergence Activity ECHGG (100=total damage to plant; 0=no damage to plant)
Description: as §1

Compound	pest or weed control at 250 g/ha (Avena fatua (AVEFA) [1]) [%]	pest or weed control at 250 g/ha (Setaria faberi (SETFA) [2]) [%]	pest or weed control at 250 g/ha [3] [%]	pest or weed control at 250 g/ha [4] [%]	pest or weed control at 250 g/ha [5] [%]	pest or weed control at 250 g/ha (Avena fatua (AVEFA) [6]) [%]	pest or weed control at 250 g/ha (Setaria faberi (SETFA) [7]) [%]	pest or weed control at 250 g/ha [8] [%]	pest or weed control at 250 g/ha [9] [%]	pest or weed control at 250 g/ha [10] [%]
CCc1sc(-c2ccc(Br)cn2)nc1C1C(=O)C(C)(C)OC(C)(C)C1=O [Compound T63]	20	20	20	0	30	90	100	80	0	100
Cc1sc(-c2ccc(I)cc2)nc1C1C(=O)C(C)(C)OC(C)(C)C1=O [Compound T51]	80	100	40	0	60	90	100	100	0	90
Cc1sc(-c2ccc(Br)cc2F)nc1C1C(=O)C(C)(C)OC(C)(C)C1=O [Compound T52]	0	100	60	0	80	100	100	100	0	100
CCc1sc(-c2ccc(Cl)cc2Cl)nc1C1C(=O)C(C)(C)OC(C)(C)C1=O [Compound T53]	0	90	30	0	60	90	100	90	0	100
CSc1ccc(-c2nc(C3C(=O)C(C)(C)OC(C)(C)C3=O)c(C)s2)cc1 [Compound T67]	–	–	–	–	–	0	70	0	0	90
Cc1cc(Cl)ccc1-c1nc(C2C(=O)C(C)(C)C(=O)C(C)(C)C2=O)c(C)s1 [Compound T44]	0	0	0	0	30	–	–	–	–	–
Cc1sc(-c2ccc(F)cc2)cc1C1C(=O)C(C)(C)C(=O)C(C)(C)C1=O [Compound T25]	–	–	–	–	–	0	20	0	0	20
CCc1sc(-c2cc(F)c(Cl)cc2Cl)nc1C1C(=O)C(C)(C)OC(C)(C)C1=O [Compound T65]	–	–	–	–	–	70	100	90	0	100
Cc1sc(-c2ccc(Cl)cc2)cc1C1C(=O)C(C)(C)C(=O)C(C)(C)C1=O [Compound T5]	–	–	–	–	–	0	50	40	0	70
Cc1sc(-c2ccc(C(F)(F)F)cc2)cc1C1C(=O)C(C)(C)C(=O)C(C)(C)C1=O [Compound T27]	–	–	–	–	–	0	50	20	30	30
